In publication PMC4534154 (Food Science & Nutrition, 2015):
“Also recorded” adds a separate entry of the source. Each block holds one compound with its values, some of them ahead of it. Where a SMILES comes first, the peptide text is derived from it.

Assays:
[1] = test system: Pepsin from porcine gastric mucosa; experiment: Simulated gastric fluid (SGF) containing pepsin; conditions: 37°C, up to 16 h
[2] = test system: trypsin from bovine pancreas; experiment: simulated intestinal fluid (SIF) containing trypsin; conditions: 37°C, up to 16 h
trypsin = biological target: T1, trypsin (Bos taurus, UniProt P00760); experiment: Simulated intestinal fluid (SIF, trypsin only) digestion of Ara h 1 peptides; assay type: in vitro ADME, bovine; conditions: SIF containing only trypsin, 200 μg peptide in 1 mL, 37°C, samples at 1, 2, 4, 16 h, LC-MS peak integration; for SIF (trypsin) cleavage, formation of 1073.55 amu cleavage ion, in words: Fig. 2D; for peptide cleaved at the K287 site in SIF (formation of 2227.05 amu ion as percentage of sum of parental and fragment ions): Fig. 2C
T1 construct: purchased Sigma; host or cells: bovine pancreas (tissue-derived)
T1 sequence (P00760 24-246): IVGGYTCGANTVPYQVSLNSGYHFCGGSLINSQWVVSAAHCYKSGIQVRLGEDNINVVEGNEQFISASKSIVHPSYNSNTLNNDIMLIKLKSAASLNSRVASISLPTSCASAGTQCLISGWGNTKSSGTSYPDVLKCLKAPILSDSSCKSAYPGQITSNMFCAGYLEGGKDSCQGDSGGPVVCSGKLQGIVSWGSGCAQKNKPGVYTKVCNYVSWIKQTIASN
Excerpt: Pepsin from porcine gastric mucosa and trypsin from bovine pancreas were purchased from Sigma. Sequencing grade-modified trypsin was purchased from Promega. Water was obtained using a Synergy Ultrapure water system (Millipore). Modified and unmodified Ara h 1 peptides were synthesized (at least 95% pure) and purchased from New England Peptide. Serum samples from five peanut allergic patients were purchased from PlasmaLab International (Everett, WA).
Simulated gastric fluid (SGF) containing pepsin and simulated intestinal fluid (SIF) containing trypsin were used as described previously (Mattison et al. [2014b]). Synthetic peptides were resuspended in water just prior to use at a concentration of 1 mg/mL. Peptides (200 μg) were digested with SGF or SIF in 1 mL reaction volume for 1, 2, 4, or 16 h at 37°C. Samples (100 μL) were removed at the indicated time points, 5% formic acid was added, and samples were frozen at −80°C prior to analysis by mass spectrometry.
Analysis of trypsin/pepsin digestions: trypsin or pepsin digested Ara h 1 peptides were analyzed via liquid chromatography with tandem mass spectrometry (LC/MS/MS), using an Agilent 1200 LC system, an Agilent Chip Cube interface, and an Agilent 6520 Q-TOF tandem mass spectrometer (Agilent Technologies, Santa Clara, CA) as described in Mattison et al. (Mattison et al. [2014a]). One microliter sample aliquots were transferred to an enrichment column via capillary pump operating at a flow of 4 μL/min. The Nano pump was operated at a flow rate of 600 nL/min. An initial gradient (Solvent A-100% H2O, 0.1% Formic Acid; Solvent B- 90% ACN, 10% H2O and 0.1% Formic Acid) of 97% A was changed to 10% […] at 2 min, 70% at 15 min, 100% at 20 min, and back to 97% at 25 min. A postrun time of 5 min was employed for column equilibration. An initial MS scan was performed from m/z 300 to 1600 and up to six multiply charged ions were selected for MS/MS analysis. The raw MS/MS data files were extracted, sequenced, and searched against a custom database containing the Ara h 1 sequence using Spectrum Mill software (Agilent Technologies, Santa Clara, CA). For relative quantification, samples were run in MS-only mode and chromatographic peak areas were integrated into selected ions representative of the peptide cleavage products, resulting from the protease digest.
We evaluated the digestion of the modified and unmodified peptides using SIF containing only trypsin to mimic intestinal digestion conditions. […] To quantify the results, we integrated the relative peak areas of the 2227.05 and 1073.55 amu ions and undigested parental ions, and plotted the generation of the peptide cleavage products as a percentage of the sum of the parental and fragment ion values over time (Fig.2C and D). […]

cleaved bond [2]: K547-D548
Compound: IFLAGDKDNVIDQIEK
fragment found [1]: IFLAGDKDNVIDQ, major; also recorded: AGDKDNVIDQ, major; also recorded: IFLAGDKD, major

Compound: IFLAGDK-CML-DNVIDQIEK
fragment found [1]: IFLAGDKDNVIDQ, major; also recorded: AGDKDNVIDQ, major; also recorded: IFLAGDKD, major | not cleaved [2]: the CML modification prevented trypsin cleavage of the peptide

Compound: VAK-CML-ISMPVNTPGQFEDFFPASSR
fragment found [1]: VAKISM, major; also recorded: VAKISMPVNTPGQF, major | not cleaved [2]: less than 5% of the CML-modified VAK peptide was cleaved (16 h)

SIF (trypsin) cleavage, formation of 1073.55 amu cleavage ion, in words (trypsin): very limited SIF proteolysis
Compound: CC[C@H](C)[C@H](N)C(=O)N[C@@H](Cc1ccccc1)C(=O)N[C@@H](CC(C)C)C(=O)N[C@@H](C)C(=O)NCC(=O)N[C@@H](CC(=O)O)C(=O)N[C@@H](CCCCN)C(=O)N[C@@H](CC(=O)O)C(=O)N[C@@H](CC(N)=O)C(=O)N[C@H](C(=O)N[C@H](C(=O)N[C@@H](CC(=O)O)C(=O)N[C@@H](CCC(N)=O)C(=O)N[C@H](C(=O)N[C@@H](CCC(=O)O)C(=O)N[C@@H](CCCCN)C(=O)O)[C@@H](C)CC)[C@@H](C)CC)C(C)C [IFLAG] (H-IFLAGDKDNVIDQIEK-OH)

cleaved bond [2]: K287-I288
Compound: VAKISMPVNTPGQFEDFFPASSR
fragment found [1]: VAKISMPVNTPGQF, major; also recorded: VAKISM, major

peptide cleaved at the K287 site in SIF (formation of 2227.05 amu ion as percentage of sum of parental and fragment ions) (trypsin; listed as CML-modified VAK): less than 5%
Compound: VAKISMPVNTPGQFEDFFPASSR [VAK-CML, synthetic Ara h 1 peptide, residues 285–307, with CML modification at lysine 287 (K287)]

SIF (trypsin) cleavage, formation of 1073.55 amu cleavage ion, in words (trypsin): prevented trypsin cleavage
Compound: CC[C@H](C)[C@H](N)C(=O)N[C@@H](Cc1ccccc1)C(=O)N[C@@H](CC(C)C)C(=O)N[C@@H](C)C(=O)NCC(=O)N[C@@H](CC(=O)O)C(=O)N[C@@H](CCCCNCC(=O)O)C(=O)N[C@@H](CC(=O)O)C(=O)N[C@@H](CC(N)=O)C(=O)N[C@H](C(=O)N[C@H](C(=O)N[C@@H](CC(=O)O)C(=O)N[C@@H](CCC(N)=O)C(=O)N[C@H](C(=O)N[C@@H](CCC(=O)O)C(=O)N[C@@H](CCCCN)C(=O)O)[C@@H](C)CC)[C@@H](C)CC)C(C)C [IFLAG-CML]

peptide cleaved at the K287 site in SIF (formation of 2227.05 amu ion as percentage of sum of parental and fragment ions) (trypsin): about 50%
Compound: VAKISMPVNTPGQFEDFFPASSR [synthetic Ara h 1 peptide, residues 285–307, unmodified]
